In brackets after ≈: the same amount, converted by molar mass. Like-named read-outs stand apart in the source and are kept apart here. Each block holds one compound with its values, some of them ahead of it.
Experiments:
[1] = test system: HepG2 transplanted tumors; experiment: proliferation of HepG2 transplanted tumors in nude mice in vivo; parameters: species or system BALB/c nude mice; conditions: 10 mg/kg bw·d intraperitoneal; day 12
Description: BALB/c nude mice (5 to 6 weeks old), weighing 19 g to 22 g, were purchased from Shanghai Experimental Animal Center, Chinese Academy of Sciences. HepG2 cells were collected in a serum-free DMEM medium to make a cell suspension, and then the cell suspension was injected into an underarm area of each mouse, approximately 2.0×10^6 cells, one site per mouse. All mice were bred in the Experimental Animal Center of Zhejiang University, under the environment of 23° C. to 25° C., humidity 50% to 60%, and cycle of 12 h light illumination/dark 12 h. After tumor formation, the mice were randomly divided into 3 groups with 7 mice in each group. The model group was given saline by intraperitoneal injection; the positive drug group was given tegafur at 10 mg/kg bw·d by intraperitoneal injection; the treatment group was intraperitoneally injected with the quercetin 3,3′-dimethyl ether at 50 mg/kg bw·d. According to the change of tumor volume, after the tumor formed, intraperitoneal injection was conducted every 1 d to 2 d, the tumor volume was measured, and the body weight of the mice was weighed. When there was a significant difference in tumor volume between different treatment groups, the mice were sacrificed by cervical dislocation, and the tumor tissue was carefully peeled off, weighed, and calculated. The formulas were: tumor formation rate (%)=(number of tumor-forming mice in treatment group/number of tumor-forming mice in inoculation group)×100; tumor inhibition rate (%)=(average tumor weight in control group (g)−average tumor weight in administration group (g))/average tumor weight in control group (g)×100. Serum, liver, spleen, and kidney were collected and weighed.

[2] = test system: Osteosarcoma cell line 143B; experiment: in vitro cell proliferation inhibition (CCK-8); format: cell-based; conditions: 48 h incubation
Excerpt: (§1) Osteosarcoma cell line 143B, HOS, and U2, liver cancer cell line HepG2, breast cancer cell line MDA-MB-231 and T47D, gastric cancer cell line AGS, BGC-823, and SGC-7901, cervical cancer cells Hela, lung cancer cells A549, intestinal cancer cells Caco2, mouse glioma cells BV-2, human prostate cancer cells PC3, human thyroid cancer cell line BCPAP, human normal liver cell line L02, human normal gastric cell line GES, human umbilical vein epithelial cells HUVEC, and human embryonic lung fibroblasts WI-38 were cultured in a DMEM medium containing 10% fetal bovine serum and 1×HEPES in a humid incubator (37° C., 5% CO2). The cells were passaged with trypsin-EDTA in logarithmic phase. Certain density of cells (AGS, T47D, Caco2, BCPAP, GES, HUVEC 1×10^5 cells per well; HepG2, MDA-MB-231, BGC-823, A549, PC3, L02 8×10^4 cells per well; 143B, HOS, U2, SGC-7901, Hela, BV-2, 5×10^4 cells per well; WI-38, 3×10^5 cells per well) were inoculated in a 96-well plate, and cultured for 24 h before treatment. After replacing a fresh medium, 12.5 mg/L to 400 mg/L of quercetin, quercetin 3-methyl ether, and quercetin 3,3′-dimethyl ether dissolved with DMSO were added into the medium (a final volume ratio was 0.1%, and the DMSO was used as a […]). After incubation for 48 h, a complete medium was replaced with a serum-free medium containing 10% CCK-8 reagent. The absorbance at 450 nm and 620 nm was measured separately after the cells were incubated for 1 h. Each experiment was repeated three times independently.
as §1, with “400 mg/L,” for “400 mg/L”, “of” for “of quercetin, quercetin 3-methyl ether, and”, “DMSO was” for “DMSO were”, “into a” for “into the”

[3] = test system: Osteosarcoma cell line HOS; experiment: in vitro cell proliferation inhibition (CCK-8); format: cell-based; conditions: 48 h incubation
Excerpt: as §1
as §1, with “400 mg/L,” for “400 mg/L”, “of” for “of quercetin, quercetin 3-methyl ether, and”, “DMSO was” for “DMSO were”, “into a” for “into the”

[4] = test system: Osteosarcoma cell line U2; experiment: in vitro cell proliferation inhibition (CCK-8); format: cell-based; conditions: 48 h incubation
Excerpt: as §1
as §1, with “400 mg/L,” for “400 mg/L”, “of” for “of quercetin, quercetin 3-methyl ether, and”, “DMSO was” for “DMSO were”, “into a” for “into the”

[5] = test system: breast cancer cell line MDA-MB-231; experiment: in vitro cell proliferation inhibition (CCK-8); format: cell-based; conditions: 48 h incubation
Excerpt: as §1
as §1, with “400 mg/L,” for “400 mg/L”, “of” for “of quercetin, quercetin 3-methyl ether, and”, “DMSO was” for “DMSO were”, “into a” for “into the”

[6] = test system: breast cancer cell line T47D; experiment: in vitro cell proliferation inhibition (CCK-8); format: cell-based; conditions: 48 h incubation
Excerpt: as §1
as §1, with “400 mg/L,” for “400 mg/L”, “of” for “of quercetin, quercetin 3-methyl ether, and”, “DMSO was” for “DMSO were”, “into a” for “into the”

[7] = test system: cervical cancer cells Hela; experiment: in vitro cell proliferation inhibition (CCK-8); format: cell-based; conditions: 48 h incubation
Excerpt: as §1
as §1, with “400 mg/L,” for “400 mg/L”, “of” for “of quercetin, quercetin 3-methyl ether, and”, “DMSO was” for “DMSO were”, “into a” for “into the”

[8] = test system: gastric cancer cell line AGS; experiment: in vitro cell proliferation inhibition (CCK-8); format: cell-based; conditions: 48 h incubation
Excerpt: as §1
as §1, with “400 mg/L,” for “400 mg/L”, “of” for “of quercetin, quercetin 3-methyl ether, and”, “DMSO was” for “DMSO were”, “into a” for “into the”

[9] = test system: gastric cancer cell line BGC-823; experiment: in vitro cell proliferation inhibition (CCK-8); format: cell-based
Excerpt: as §1
as §1, with “400 mg/L,” for “400 mg/L”, “of” for “of quercetin, quercetin 3-methyl ether, and”, “DMSO was” for “DMSO were”, “into a” for “into the”

[10] = test system: gastric cancer cell line SGC-7901; experiment: in vitro cell proliferation inhibition (CCK-8); format: cell-based
Excerpt: as §1
as §1, with “400 mg/L,” for “400 mg/L”, “of” for “of quercetin, quercetin 3-methyl ether, and”, “DMSO was” for “DMSO were”, “into a” for “into the”

[11] = test system: human prostate cancer cells PC3; experiment: in vitro cell proliferation inhibition (CCK-8); format: cell-based; conditions: 48 h incubation
Excerpt: as §1
as §1, with “400 mg/L,” for “400 mg/L”, “of” for “of quercetin, quercetin 3-methyl ether, and”, “DMSO was” for “DMSO were”, “into a” for “into the”

[12] = test system: human thyroid cancer cell line BCPAP; experiment: in vitro cell proliferation inhibition (CCK-8); format: cell-based; conditions: 48 h incubation
Excerpt: as §1
as §1, with “400 mg/L,” for “400 mg/L”, “of” for “of quercetin, quercetin 3-methyl ether, and”, “DMSO was” for “DMSO were”, “into a” for “into the”

[13] = test system: intestinal cancer cells Caco2; experiment: in vitro cell proliferation inhibition (CCK-8); format: cell-based
Excerpt: as §1
as §1, with “400 mg/L,” for “400 mg/L”, “of” for “of quercetin, quercetin 3-methyl ether, and”, “DMSO was” for “DMSO were”, “into a” for “into the”

[14] = test system: liver cancer cell line HepG2; experiment: in vitro cell proliferation inhibition (CCK-8); format: cell-based; conditions: 48 h incubation
Excerpt: as §1
as §1, with “400 mg/L,” for “400 mg/L”, “of” for “of quercetin, quercetin 3-methyl ether, and”, “DMSO was” for “DMSO were”, “into a” for “into the”

lung cancer cells A549 = experiment: in vitro cell proliferation inhibition (CCK-8); format: cell-based; conditions: 48 h incubation
Excerpt: as §1
as §1, with “400 mg/L,” for “400 mg/L”, “of” for “of quercetin, quercetin 3-methyl ether, and”, “DMSO was” for “DMSO were”, “into a” for “into the”

mouse glioma cells BV-2 = experiment: in vitro cell proliferation inhibition (CCK-8); format: cell-based; conditions: BV2, 48 h incubation
Excerpt: as §1
as §1, with “400 mg/L,” for “400 mg/L”, “of” for “of quercetin, quercetin 3-methyl ether, and”, “DMSO was” for “DMSO were”, “into a” for “into the”

SMILES: O=c1[nH]c(=O)n(C2CCCO2)cc1F (stereo not shown) [tegafur, reference compound]
mortality of the mice [1]: all dead

IC50 [2]: 210.34 mg/L (≈ 665 µM)
IC50 [3]: 130.84 mg/L (≈ 414 µM)
IC50 [4]: 377.08 mg/L (≈ 1190 µM)
IC50 [5]: 92.14 mg/L (≈ 291 µM)
IC50 [6]: 154.72 mg/L (≈ 489 µM)
IC50 [7]: 82.34 mg/L (≈ 260 µM)
IC50 [8]: 117.04 mg/L (≈ 370 µM)
IC50 ([9]; BGC823, 48 h incubation): 192.55 mg/L (≈ 609 µM)
IC50 ([10]; SGC7901, 48 h incubation): 123.94 mg/L (≈ 392 µM)
IC50 [11]: 368.40 mg/L (≈ 1160 µM)
IC50 [12]: 157.67 mg/L (≈ 499 µM)
IC50 ([13]; 48 h incubation): 215.61 mg/L (≈ 682 µM)
IC50 [14]: 58.45 mg/L (≈ 185 µM)
IC50 (lung cancer cells A549): 252.27 mg/L (≈ 798 µM)
IC50 (mouse glioma cells BV-2): 288.00 mg/L (≈ 911 µM)
SMILES: COc1c(-c2ccc(O)c(O)c2)oc2cc(O)cc(O)c2c1=O [Quercetin 3-methyl ether, quercetin 3-methyl ether]

IC50 ([2]; Homo sapiens, read-out: IC50): > 400 mg/L
IC50 ([3]; read-out: IC50): > 400 mg/L
IC50 ([4]; read-out: IC50): > 400 mg/L
IC50 ([5]; Homo sapiens, read-out: IC50): 331 mg/L (≈ 1090 µM)
IC50 ([6]; Homo sapiens, read-out: IC50): > 400 mg/L
IC50 ([7]; Homo sapiens, read-out: IC50): 196 mg/L (≈ 648 µM)
IC50 ([8]; read-out: IC50): 329 mg/L (≈ 1090 µM)
IC50 ([9]; Homo sapiens, BGC-823, BGC823, 48 h incubation, read-out: IC50): > 400 mg/L
IC50 ([10]; Homo sapiens, SGC-7901, SGC7901, 48 h incubation, read-out: IC50): > 400 mg/L
IC50 ([11]; Homo sapiens, read-out: IC50): > 400 mg/L
IC50 ([12]; Homo sapiens, read-out: IC50): 391 mg/L (≈ 1290 µM)
IC50 ([13]; Homo sapiens, Caco-2, 48 h incubation, read-out: IC50): > 400 mg/L
IC50 ([14]; Homo sapiens, read-out: IC50): 155 mg/L (≈ 513 µM)
IC50 (lung cancer cells A549; Homo sapiens, read-out: IC50): > 400 mg/L
IC50 (mouse glioma cells BV-2; Mus musculus, Glioma cell, read-out: IC50): > 400 mg/L
SMILES: O=c1c(O)c(-c2ccc(O)c(O)c2)oc2cc(O)cc(O)c12 [Quercetin, quercetin]
